# Measurements taken from patent US20250353855A1, “HETEROCYCLIC AND HETEROARYL COMPOUNDS FOR TREATING HUNTINGTON'S DISEASE” (PTC THERAPEUTICS, INC., priority 2022, published 2025).
# pIC50: −log10 of the molar value. Where two headings read alike, the source gives them in different places.
# Test system: Endogenous Huntingtin Protein
# Test: Endogenous Huntingtin Protein Assay (ELISA-based MSD electrochemiluminescence)
# Format: cell-based
# Conditions: MSD plates coated with MW1 (expanded polyglutamine) or MAB2166 capture antibody, lysates
# Method: Compounds of Formula (T) were tested using the Meso Scale Discovery (MSD) Assay provided in International Application No. PCT/US2016/066042, filed on Dec. 11, 2016 and claiming priority to U.S. Provisional Application 62/265,652 filed on Dec. 10, 2015, the entire contents of which are incorporated herein by reference.
# The Endogenous Huntingtin Protein assay used in Example 1 was developed using the ELISA-based MSD electrochemiluminescence assay platform.
# Meso Scale Discovery (MSD) 96-well or 384-well plates were coated overnight at 4° C. with MW1 (expanded polyglutamine) or MAB2166 monoclonal antibody (for capture) at a concentration of 1 μg/mL in PBS (30 μL per well). Plates were then washed three times with 300 μL wash buffer (0.05% Tween-20 in PBS) and blocked (100 μL blocking buffer; 5% BSA in PBS) for 4-5 hours at room temperature with rotational shaking and then washed three times with wash buffer.
# Samples (25 μL) were transferred to the antibody-coated MSD plate and incubated overnight at 4° C. After removal of the lysates, the plate was washed three times with wash buffer, and 25 μL of #5656S (Cell signaling; rabbit monoclonal) secondary antibody (diluted to 0.25 μg/mL in 0.05% Tween-20 in blocking buffer) was added to each well and incubated with shaking for 1 Hour at room temperature. Following incubation with the secondary antibody, the wells were rinsed with wash buffer after which 25 μL of goat anti-rabbit SULFO TAG secondary detection antibody (required aspect of the MSD system) (diluted to 0.25 μg/mL in 0.05% Tween-20 in blocking buffer) was added to each well and incubated with shaking for 1 hour at room temperature. After rinsing three times with wash buffer, 150 μL of read buffer T with surfactant (MSD) were added to each empty well, and the plate was imaged on a SI 6000 imager (MSD) according to manufacturers' instructions provided for 96- or 384-well plates.
pIC50 (read-out: IC50),Compound,pIC50
> 7.00,"Cc1nc2cc(-c3cc4c(nn3)N([C@H]3CC(C)(C)NC(C)(C)[C@H]3F)CC4)c(O)c(F)c2o1 [Cpd 103, 7-fluoro-5-{7-[(3S,4S)-3-fluoro-2,2,6,6-tetramethylpiperidin-4-yl]-6,7-dihydro-5H-pyrrolo[2,3-c]pyridazin-3-yl}-2-methyl-1,3-benzoxazol-6-ol]",
,"CSc1nc2cc(O)c(-c3cc4c(nn3)N([C@H]3CC(C)(C)NC(C)(C)[C@H]3F)CC4)cc2s1 [Cpd 98, 6-{7-[(3S,4S)-3-fluoro-2,2,6,6-tetramethylpiperidin-4-yl]-6,7-dihydro-5H-pyrrolo[2,3-c]pyridazin-3-yl}-2-(methylsulfanyl)-1,3-benzothiazol-5-ol]",> 7.00
,"Cc1nc2cc(O)c(-c3cc4ccn([C@@H]5CCNC(C)(C)[C@@H]5F)c4nn3)cc2o1 [Cpd 20, 6-{7-[(3R,4R)-3-fluoro-2,2-dimethylpiperidin-4-yl]-7H-pyrrolo[2,3-c]pyridazin-3-yl}-2-methyl-1,3-benzoxazol-5-ol]",> 7.00
> 7.00,"Cn1ccc(=O)c2cc(-c3cc4ccn([C@H]5CC(C)(C)NC(C)(C)[C@H]5F)c4nn3)c(O)cc21 [Cpd 18, 6-{7-[(3S,4S)-3-fluoro-2,2,6,6-tetramethylpiperidin-4-yl]-7H-pyrrolo[2,3-c]pyridazin-3-yl}-7-hydroxy-1-methylquinolin-4(1H)-one]",
> 7.00,"Cc1nc2cc(O)c(-c3cc4nnn(C5CC(C)(C)NC(C)(C)C5)c4nn3)cc2s1 [Cpd 27, 2-methyl-6-[3-(2,2,6,6-tetramethylpiperidin-4-yl)-3H-[1,2,3]triazolo[4,5-c]pyridazin-6-yl]-1,3-benzothiazol-5-ol]",
> 7.00,"Cc1nc2cc(O)c(-c3cc4ncn([C@H]5CC(C)(C)NC6(CC6)C5)c4nn3)cc2s1 [Cpd 11, 6-{7-[(7S)-5,5-dimethyl-4-azaspiro[2.5]octan-7-yl]-7H-imidazo[4,5-c]pyridazin-3-yl}-2-methyl-1,3-benzothiazol-5-ol]",
> 7.00,"Cc1cnc2cc(O)c(-c3cc4ccn([C@H]5CC(C)(C)NC(C)(C)[C@H]5F)c4nn3)cc2c1 [Cpd 35, 6-{7-[(3S,4S)-3-fluoro-2,2,6,6-tetramethylpiperidin-4-yl]-7H-pyrrolo[2,3-c]pyridazin-3-yl}-3-methylquinolin-7-ol]",
> 7.00,"Cc1nc2cc(-c3cc4c(nn3)N([C@H]3CC(C)(C)NC(C)(C)[C@H]3F)CC4)c(O)cc2n1C [Cpd 48, 5-{7-[(3S,4S)-3-fluoro-2,2,6,6-tetramethylpiperidin-4-yl]-6,7-dihydro-5H-pyrrolo[2,3-c]pyridazin-3-yl}-1,2-dimethyl-1H-benzimidazol-6-ol]",
> 7.00,"Cc1nc2cc(-c3cc4ccn([C@H]5CC(C)(C)NC(C)(C)[C@H]5F)c4nn3)c(O)cc2o1 [Cpd 6, 5-{7-[(3S,4S)-3-fluoro-2,2,6,6-tetramethylpiperidin-4-yl]-7H-pyrrolo[2,3-c]pyridazin-3-yl}-2-methyl-1,3-benzoxazol-6-ol]",
> 7.00,"Cc1nc2cc(O)c(-c3cc4c(nn3)N(C3CC5(CC5)NC5(CC5)C3)CC4)cc2s1 (stereo not shown) [Cpd 71, 6-[7-(4-azadispiro[2.1.25.33]decan-9-yl)-6,7-dihydro-5H-pyrrolo[2,3-c]pyridazin-3-yl]-2-methyl-1,3-benzothiazol-5-ol]",
> 7.00,"CC1(C)C[C@H](N2CCc3cc(-c4cc5ccc(=O)oc5cc4O)nnc32)[C@H](F)C(C)(C)N1 [Cpd 67, 6-{7-[(3S,4S)-3-fluoro-2,2,6,6-tetramethylpiperidin-4-yl]-6,7-dihydro-5H-pyrrolo[2,3-c]pyridazin-3-yl}-7-hydroxy-2H-1-benzopyran-2-one]",
> 7.00,"CCc1nc2cc(-c3cc4ccn([C@H]5CC(C)(C)NC(C)(C)[C@H]5F)c4nn3)c(O)cc2o1 [Cpd 13, 2-ethyl-5-{7-[(3S,4S)-3-fluoro-2,2,6,6-tetramethylpiperidin-4-yl]-7H-pyrrolo[2,3-c]pyridazin-3-yl}-1,3-benzoxazol-6-ol]",
> 7.00,"CC1(C)C[C@H](N2CCc3cc(-c4cc5oc(=O)[nH]c5cc4O)nnc32)[C@H](F)C(C)(C)N1 [Cpd 86, 6-{7-[(3S,4S)-3-fluoro-2,2,6,6-tetramethylpiperidin-4-yl]-6,7-dihydro-5H-pyrrolo[2,3-c]pyridazin-3-yl}-5-hydroxy-1,3-benzoxazol-2(3H)-one]",
> 7.00,"Cc1nc2cc(O)c(-c3cc4c(nn3)N([C@H]3CC(C)(C)NC(C)(C)[C@H]3F)CC4)cc2o1 [Cpd 44, 6-{7-[(3S,4S)-3-fluoro-2,2,6,6-tetramethylpiperidin-4-yl]-6,7-dihydro-5H-pyrrolo[2,3-c]pyridazin-3-yl}-2-methyl-1,3-benzoxazol-5-ol]",
> 7.00,"Cn1nc2cc(O)c(-c3cc4ccn([C@H]5CC(C)(C)NC(C)(C)[C@H]5F)c4nn3)cc2n1 [Cpd 37, 6-{7-[(3S,4S)-3-fluoro-2,2,6,6-tetramethylpiperidin-4-yl]-7H-pyrrolo[2,3-c]pyridazin-3-yl}-2-methyl-2H-benzotriazol-5-ol]",
,"Cn1ncc2cc(O)c(-c3cc4c(nn3)N([C@H]3CC(C)(C)NC(C)(C)[C@H]3F)CC4)cc21 [Cpd 62, 6-{7-[(3S,4S)-3-fluoro-2,2,6,6-tetramethylpiperidin-4-yl]-6,7-dihydro-5H-pyrrolo[2,3-c]pyridazin-3-yl}-1-methyl-1H-indazol-5-ol]",> 7.00
> 7.00,"Cc1nc2cc(O)c(-c3cc4c(nn3)N([C@H]3C[C@@H]5CC[C@@H](N5)[C@H]3F)CC4)cc2s1 (single isomer, unassigned) [Cpd 58, 6-{7-[(1R,2R,3S,5S)-2-fluoro-8-azabicyclo[3.2.1]octan-3-yl]-6,7-dihydro-5H-pyrrolo[2,3-c]pyridazin-3-yl}-2-methyl-1,3-benzothiazol-5-ol or 6-{7-[(1S,2S,3R,5R)-2-fluoro-8-azabicyclo[3.2.1]octan-3-yl]-6,7-dihydro-5H-pyrrolo[2,3-c]pyridazin-3-yl}-2-methyl-1,3-benzothiazol-5-ol]",
> 7.00,"Cc1nc2cc(-c3cc4c(nn3)N([C@H]3CC(C)(C)NC(C)(C)[C@H]3F)CC4)c(O)cc2[nH]1 [Cpd 46, 5-{7-[(3S,4S)-3-fluoro-2,2,6,6-tetramethylpiperidin-4-yl]-6,7-dihydro-5H-pyrrolo[2,3-c]pyridazin-3-yl}-2-methyl-1H-benzimidazol-6-ol]",
> 7.00,"CC1(C)C[C@H](N2CCc3cc(-c4cc5nccnc5cc4O)nnc32)[C@H](F)C(C)(C)N1 [Cpd 45, 7-{7-[(3S,4S)-3-fluoro-2,2,6,6-tetramethylpiperidin-4-yl]-6,7-dihydro-5H-pyrrolo[2,3-c]pyridazin-3-yl}quinoxalin-6-ol]",
> 7.00,"Cc1ccc2cc(-c3cc4c(nn3)N([C@H]3CC(C)(C)NC(C)(C)[C@H]3F)CC4)c(O)cc2n1 [Cpd 76, 6-{7-[(3S,4S)-3-fluoro-2,2,6,6-tetramethylpiperidin-4-yl]-6,7-dihydro-5H-pyrrolo[2,3-c]pyridazin-3-yl}-2-methylquinolin-7-ol]",
,"COc1cnc2cc(-c3cc4c(nn3)N([C@H]3CC(C)(C)NC(C)(C)[C@H]3F)CC4)c(O)cc2n1 [Cpd 84, 7-{7-[(3S,4S)-3-fluoro-2,2,6,6-tetramethylpiperidin-4-yl]-6,7-dihydro-5H-pyrrolo[2,3-c]pyridazin-3-yl}-3-methoxyquinoxalin-6-ol]",> 7.00
> 7.00,"CC1(C)C[C@H](n2ccc3cc(-c4cc5ncccc5cc4O)nnc32)[C@H](F)C(C)(C)N1 [Cpd 17, 7-{7-[(3S,4S)-3-fluoro-2,2,6,6-tetramethylpiperidin-4-yl]-7H-pyrrolo[2,3-c]pyridazin-3-yl}quinolin-6-ol]",
> 7.00,"Cc1cc2cc(-c3cc4c(nn3)N([C@H]3CC(C)(C)NC(C)(C)[C@H]3F)CC4)c(O)cc2oc1=O [Cpd 73, 6-{7-[(3S,4S)-3-fluoro-2,2,6,6-tetramethylpiperidin-4-yl]-6,7-dihydro-5H-pyrrolo[2,3-c]pyridazin-3-yl}-7-hydroxy-3-methyl-2H-1-benzopyran-2-one]",
> 7.00,"CC1(C)C[C@H](N2CCc3cc(-c4cc5cc(F)cnc5cc4O)nnc32)[C@H](F)C(C)(C)N1 [Cpd 93, 3-fluoro-6-{7-[(3S,4S)-3-fluoro-2,2,6,6-tetramethylpiperidin-4-yl]-6,7-dihydro-5H-pyrrolo[2,3-c]pyridazin-3-yl}quinolin-7-ol]",

Compound,pIC50 (read-out: IC50),pIC50
"Cc1nc2cc(O)c(-c3cc4ccn([C@H]5C[C@@H]6CC[C@@H](N6)[C@H]5F)c4nn3)cc2s1 (single isomer, unassigned) [Cpd 10, 6-{7-[(1R,2R,3S,5S)-2-fluoro-8-azabicyclo[3.2.1]octan-3-yl]-7H-pyrrolo[2,3-c]pyridazin-3-yl}-2-methyl-1,3-benzothiazol-5-ol or 6-{7-[(1S,2S,3R,5R)-2-fluoro-8-azabicyclo[3.2.1]octan-3-yl]-7H-pyrrolo[2,3-c]pyridazin-3-yl}-2-methyl-1,3-benzothiazol-5-ol]",> 7.00,
